Article PMC11858294, “Design, Synthesis and Biological Activity Study of γ-Aminobutyric Acid (GABA) Derivatives Containing Bridged Bicyclic Skeletons as BCAT1 Inhibitors” (Molecules, 2025)

Assays:
NCI-H1975 cells = experiment: Cell proliferation assay (SRB), NCI-H1975 cells; assay type: cell-based; details: Homo sapiens, proliferation inhibition, 120 h, mean ± SD (n = 3)
From the text: (§1) Subsequently, we evaluated the in vitro anti-proliferative activity of compounds 1, 2, 4 and 7 on the proliferation of both 67R and NCI-H1975 cells, using gabapentin as positive controls (Figure 3 and Table 2). These four compounds represented the potent BCAT1 inhibitors in the above enzymatic assay.
(§2) Cell culture and chemical reagents: Human NSCLC NCI-H1975 cells were purchased from American Type Culture Collection (ATCC, Manassas, VA, USA) and cultured in RPMI 1640 medium with 10% FBS in a cell incubator (37 °C, 5% CO2). ASK120067-resistant cells (67R) were constructed, cultured, and authenticated as described previously. Gabapentin (#T0702) was purchased from TargetMol (Boston, MA, USA).
(§3) A sulforodamine B (SRB) colorimetric assay was employed to detect the inhibitory effect of compounds on cell proliferation. Cells in the logarithmic growth phase were seeded into 96-well plates and cultured overnight. After incubation with the indicated compounds for 120 h, the culture medium was discarded. Then, 100 μL of 10% pre-cooled trichloroacetic acid (TCA) was added to each well to fix the cells at 4 °C for 1 h. The wells were then washed five times with distilled water. After drying, 100 μL of SRB dye (4 mg/mL SRB dissolved in 1% glacial acetic acid) was added to each well, and the cells were stained for 15 min at room temperature. After washing with 1% glacial acetic acid for five times, the plate was dried again. To dissolve the dye, 150 μL of 10 mM Tris solution was added to each well. The optical density (OD) was measured at 560 nm using a multi-well VersaMax spectrophotometer (Molecular Devices, Sunnyvale, CA, USA). The relative inhibition rate of the compounds on cell proliferation was calculated using the following formula: Inhibition rate (%) = [1 − (A560treated/A560control)] × 100%. The IC50 values were determined from the dose–response curves using the logit method.

BCAT1 enzyme = biological target: T1, BCAT1 enzyme (Homo sapiens, UniProt P54687); experiment: BCAT1 enzyme inhibition assay (LeuDH-coupled, NADH fluorescence); assay type: biochemical
T1 construct: purchased Sino Biological ME17NO0265
T1 sequence (P54687 1-386): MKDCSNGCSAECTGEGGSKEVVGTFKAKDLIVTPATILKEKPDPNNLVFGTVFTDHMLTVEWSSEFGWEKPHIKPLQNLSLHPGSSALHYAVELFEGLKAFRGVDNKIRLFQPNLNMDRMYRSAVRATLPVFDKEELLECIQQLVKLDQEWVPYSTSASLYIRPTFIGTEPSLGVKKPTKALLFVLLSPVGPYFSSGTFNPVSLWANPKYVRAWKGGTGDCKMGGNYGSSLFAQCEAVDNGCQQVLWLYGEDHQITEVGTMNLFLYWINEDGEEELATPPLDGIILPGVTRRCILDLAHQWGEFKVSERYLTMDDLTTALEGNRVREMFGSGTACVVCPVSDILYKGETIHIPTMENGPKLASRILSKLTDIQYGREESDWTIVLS
Description: The inhibitory activity of the synthesized compounds against BCAT1 enzyme was screened by a known method, where leucine dehydrogenase (LeuDH) was utilized to catalyze the nicotinamide adenine dinucleotide (NADH)-dependent reduction of the BCAA α-ketoisocaproate (α-KIC) to leucine and NADH consumption was measured through fluorescence and luminescence readouts to assess BCAT1 activity.
The compounds to be tested or PBS was added to a 384-well plate, followed by the addition of assay buffer (50 mM ammonium sulfate, 1 mM EDTA, 2 mM DTT, 0.01% BSA, 0.5 μM PLP, 50 mM HEPES buffer (pH 7.4)), 0.01 U LeuDH enzyme (#E0217, Nanjing Duly Biotechnology Co., Ltd., Nanjing, China) and 15 ng BCAT1 enzyme (#ME17NO0265, Sino Biological, Beijing, China). Subsequently, 40 μM α-KG, 100 μM Leucine and 10 μM NADH substrate mixture were added to initiate the reaction. Fluorescence changes in NADH were dynamically monitored using the Spark cyto (Tecan, Männedorf, Switzerland). The rate of NADH fluorescence decay was calculated to assess enzyme activity.

67R cells = experiment: Cell proliferation assay (SRB), ASK120067-resistant 67R cells; assay type: cell-based, Human; details: 120 h, proliferation inhibition, mean ± SD (n = 3), cells with high BCAT1 expression
From the text: as §1, §2, §3

BCAT1 = system: BCAT1; design: method as in PMID 39791161; details: Figure 1; cited from earlier work
hBCAT1 = system: hBCAT1; design: method as in PMID 39791161; details: Figure 1; cited from earlier work

Structure (SMILES) | IC50 (NCI-H1975 cells) [mM] | IC50 (BCAT1 enzyme) [mM] | IC50 (67R cells; Homo sapiens) [mM] | other results
NC[C@@]1(CC(=O)O)C[C@H]2C=C[C@@H]1C2 (relative stereo) [2•p-TsOH, 2-((1S*,2R*,4S*)-2-(Aminomethyl)bicyclo[2.2.1]hept-5-en-2-yl)acetic acid] | 8.99 ± 0.67 | 2.04 ± 0.98 | < 2 | IC50 (67R cells): 2.71 ± 0.33 mM
NC[C@]1(CC(=O)O)C[C@H]2C=C[C@@H]1C2 (relative stereo) [3•p-TsOH, 2-((1S*,2S*,4S*)-2-(Aminomethyl)bicyclo[2.2.1]hept-5-en-2-yl)acetic acid] | – | 3.96 ± 2.83 | – | –
NC[C@]1(CC(=O)O)C[C@H]2CCC[C@@H]1C2 (relative stereo) [5•HBr, 2-((1S*,5R*,6S*)-6-(Aminomethyl)bicyclo[3.2.1]octan-6-yl)acetic acid] | – | 4.2 ± 1.84 | – | –
NC[C@@]1(CC(=O)O)C[C@H]2CC=C[C@@H]1C2 (relative stereo) [7•p-TsOH, 2-((1S*,5S*,6R*)-6-(Aminomethyl)bicyclo[3.2.1]oct-3-en-6-yl)acetic acid] | 7.26 ± 0.73 | 0.78 ± 0.19 | < 2 | enhancement in BCAT1 enzymatic inhibitory activity compared to the parent compound WQQ-345 (BCAT1 enzyme; ratio of IC50 values versus WQQ-345): 6 fold; IC50 (67R cells): 1.64 ± 0.49 mM
NC[C@]1(CC(=O)O)C[C@H]2CCCC1CC2 (relative stereo) [8•HBr, 2-((1S*,6S*)-6-(Aminomethyl)bicyclo[3.2.2]nonan-6-yl)acetic acid] | – | 14.5 ± 6.39 | – | –
NC[C@@]1(CC(=O)O)C[C@H]2CC[C@@H]1C2 (relative stereo) [Compound 1, 2-((1R*,2R*,4S*)-2-(Aminomethyl)bicyclo[2.2.1]heptan-2-yl)acetic acid] | 7.82 ± 0.48 | 2.04 ± 0.59 | 2.6 ± 0.93 | –
NC[C@@]1(CC(=O)O)C[C@H]2CCC[C@@H]1C2 (relative stereo) [Compound 6, 2-((1S*,5R*,6R*)-6-(Aminomethyl)bicyclo[3.2.1]octan-6-yl)acetic acid] | – | 1.54 ± 0.47 | – | –
NCC1(CC(=O)O)CC2CCC1CC2 (stereo not drawn) [4•HBr, 2-((1R*,2S*,4R*)-2-(aminomethyl)bicyclo[2.2.2]octan-2-yl)acetic acid] | 8.08 ± 0.96 | 1.71 ± 1 | 1.38 ± 0.37 | –
Cc1ccccc1Oc1cc(-n2c(=O)cc(C(F)(F)F)[nH]c2=O)c2ccccc2c1Cl [BAY-069] | – | – | – | IC50 (BCAT1): 31 nM
CC(=O)C(C)CCC(=O)O (centres unmarked) [MOHA] | – | – | – | IC50 (hBCAT1): 0.001 to 0.01 mM
NC[C@]1(CC(=O)O)C[C@H]2CC[C@@H]1C2 [WQQ-345•HBr] | – | 4.86 ± 1.98 | – | –
NCC1(CC(=O)O)CCCCC1 [gabapentin, reference compound] | > 10 | 5.07 ± 1.06 | 3.53 ± 0.22 | Ki (hBCAT1): 3.5 mM
